According to the supplement of paper PMC10307832:

Legend:
Assay in all cases: relative viability (nuclei count vs DMSO), 5 days (fraction); higher = more cells survive
Sorafenib + OSI-027 = compound: CNC(=O)c1cc(Oc2ccc(NC(=O)Nc3ccc(Cl)c(C(F)(F)F)c3)cc2)ccn1 [Sorafenib] + COc1cccc2cc(-c3nc([C@H]4CC[C@H](C(=O)O)CC4)n4ncnc(N)c34)[nH]c12 [OSI-027] (partner 0.5 µM)
In short: (§1)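 After 5 days of treatment, lung cancer cells in 1536-well plates were fixed and stained in a single step (final 0.05% Triton X-100, 1% formaldehyde, 1 ug/ml Hoechst) and their nuclei counted on 4× images. Treatment had been applied by pin tool the day after seeding as one drug alone or as a fixed anchor-drug dose with five library-drug doses (not always all listed) in √10 steps. Relative viability is the nuclei count of treated wells divided by that of vehicle wells, and values are medians of duplicate plates.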

Sorafenib + Olaparib = compound: CNC(=O)c1cc(Oc2ccc(NC(=O)Nc3ccc(Cl)c(C(F)(F)F)c3)cc2)ccn1 [Sorafenib] + O=C(c1cc(Cc2n[nH]c(=O)c3ccccc23)ccc1F)N1CCN(C(=O)C2CC2)CC1 [Olaparib] (partner 8 µM)
In short: as §1

Sorafenib + Luminespib = compound: CNC(=O)c1cc(Oc2ccc(NC(=O)Nc3ccc(Cl)c(C(F)(F)F)c3)cc2)ccn1 [Sorafenib] + CCNC(=O)c1noc(-c2cc(C(C)C)c(O)cc2O)c1-c1ccc(CN2CCOCC2)cc1 [Luminespib] (partner 0.01 µM)
In short: as §1

Sorafenib + Phenformin = compound: CNC(=O)c1cc(Oc2ccc(NC(=O)Nc3ccc(Cl)c(C(F)(F)F)c3)cc2)ccn1 [Sorafenib] + N=C(N)NC(=N)NCCc1ccccc1 [Phenformin] (partner 250 µM)
In short: as §1

Sorafenib + Pictilisib = compound: CNC(=O)c1cc(Oc2ccc(NC(=O)Nc3ccc(Cl)c(C(F)(F)F)c3)cc2)ccn1 [Sorafenib] + CS(=O)(=O)N1CCN(Cc2cc3nc(-c4cccc5[nH]ncc45)nc(N4CCOCC4)c3s2)CC1 [Pictilisib] (partner 1 µM)
In short: as §1

Cell Line | relative viability (Sorafenib + OSI-027; first compound 0.08 µM) | relative viability (Sorafenib + OSI-027; first compound 0.253 µM) | relative viability (Sorafenib + OSI-027; first compound 2.53 µM) | relative viability (Sorafenib + OSI-027; first compound 8 µM) | relative viability (Sorafenib + Olaparib; first compound 0.08 µM) | relative viability (Sorafenib + Olaparib; first compound 0.253 µM) | relative viability (Sorafenib + Olaparib; first compound 2.53 µM) | relative viability (Sorafenib + Olaparib; first compound 8 µM) | relative viability (Sorafenib + Luminespib; first compound 0.08 µM) | relative viability (Sorafenib + Luminespib; first compound 0.253 µM) | relative viability (Sorafenib + Luminespib; first compound 2.53 µM) | relative viability (Sorafenib + Luminespib; first compound 8 µM) | relative viability (Sorafenib + Phenformin; first compound 0.08 µM) | relative viability (Sorafenib + Phenformin; first compound 0.253 µM) | relative viability (Sorafenib + Phenformin; first compound 2.53 µM) | relative viability (Sorafenib + Phenformin; first compound 8 µM) | relative viability (Sorafenib + Pictilisib; first compound 0.08 µM) | relative viability (Sorafenib + Pictilisib; first compound 0.253 µM) | relative viability (Sorafenib + Pictilisib; first compound 2.53 µM) | relative viability (Sorafenib + Pictilisib; first compound 8 µM)
PC-3 [JPC-3] | 0.805 | 0.722 | 0.692 | 0.617 | 1.18 | 1.12 | 1.18 | 0.944 | 0.67 | 0.687 | 0.717 | 0.637 | 0.512 | 0.458 | 0.492 | 0.453 | 0.813 | 0.659 | 0.752 | 0.679
PC-14 | 0.96 | – | 0.745 | 0.321 | 0.323 | 0.315 | 0.238 | 0.105 | 0.138 | 0.138 | 0.19 | 0.138 | 0.632 | 0.429 | 0.696 | 0.591 | 0.748 | 0.542 | 0.625 | 0.344
RERF-LC-KJ | 0.601 | 0.502 | 0.649 | 0.397 | 0.979 | 0.784 | – | 0.297 | 1.2 | 1.26 | 1.24 | 0.404 | 0.437 | 0.435 | 0.463 | 0.394 | 0.604 | 0.578 | 0.612 | 0.438
SK-LU-1 | 0.41 | 0.283 | 0.345 | 0.227 | 0.534 | 0.361 | 0.549 | 0.317 | 0.181 | 0.181 | 0.2 | 0.179 | 0.641 | 0.484 | 0.487 | 0.195 | 0.61 | 0.439 | 0.579 | 0.412
SK-MES-1 | 0.604 | 0.548 | 0.5 | 0.454 | 0.664 | 0.551 | 0.648 | 0.258 | 0.752 | 0.69 | 0.791 | 0.412 | 0.689 | 0.62 | 0.596 | 0.424 | 0.451 | 0.439 | 0.447 | 0.377
SW 1573 | 0.79 | 0.517 | 0.553 | 0.21 | 0.47 | 0.518 | 0.437 | 0.132 | 0.239 | 0.255 | 0.166 | 0.117 | 0.446 | 0.403 | 0.388 | 0.0803 | 0.464 | 0.465 | 0.402 | 0.257
UMC-11 | 0.46 | 0.386 | 0.454 | 0.266 | 0.39 | 0.375 | 0.38 | 0.15 | 1.03 | 1.03 | 1 | 0.182 | 0.316 | 0.301 | 0.24 | 0.155 | 0.85 | 0.78 | 0.759 | 0.523
